{"source": "patent US7071165B2", "about": "“LHRH antagonist peptides” (Indiana University Research and Technology Corporation, priority 1995, dated 2006)", "key": {"ovulation in female rats [1]": {"tested_on": "ovulation in female rats", "test": "Anti-ovulatory activity (AOA) in vivo assay in rats", "design": "species or system rat", "conditions": "for AO activity (AOA), in words: rat, in vivo", "in_short": "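Female rats dosed on proestrus day with test peptide dissolved in 0.1% DMSO. Read-out is the number of rats that ovulate; antagonist activity is defined as blocking ovulation in at least 50% of treated rats at a dose of 5 μg per rat.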"}, "rat mast cells": {"tested_on": "rat mast cells", "test": "Histamine release assay, rat mast cells", "protocol": "The term “histamine-releasing activity”, as used herein, refers to the tendency of a compound to release histamine when administered to a subject. The histamine-releasing activity of a compound can be measured with an in vitro assay (described in more detail, infra). […] Histamine-releasing activity was assayed by the method described in U.S. Pat. No. 4,851,385 to Roeske. Briefly, a suspension of rat mast cells was added to increasing concentrations of an LHRH antagonist peptide and incubated for 15 minutes at 37° C. The buffer contained 25 mM PIPES, pH 7.4, NaCl (119 mM), KCl (5 mM), NaOH (40 mM) glucose (5.6 mM), CaCl2 (1 mM) and 0.1% bovine serum albumin."}, "ovulation in female rats [2]": {"tested_on": "ovulation in female rats", "test": "Anti-ovulatory activity (AOA) in vivo assay in rats", "conditions": "dose 0.5 μg per rat"}, "plasma testosterone [3]": {"tested_on": "plasma testosterone", "test": "Suppression of plasma testosterone, eight doses every three hours (FIG. 1)", "assay_type": "in vivo, rat", "conditions": "adult male rats", "protocol": "FIG. 1 is a graph depicting plasma testosterone levels (in ng/ml) in adult male rats administered eight subcutaneous injections of the LHRH antagonist #3827, one injection every three hours, at doses of 1, 10 or 100 μg/kg.\nIn another experiment, the LHRH antagonist #3827 was administered in eight […] doses of 1, 10 or 100 μg/kg, each every three hours, corresponding respectively to 8, 80 or 800 μg/kg/day. The results are shown graphically in FIG. 1."}, "plasma testosterone [4]": {"tested_on": "plasma testosterone", "test": "Suppression of plasma testosterone, single subcutaneous injection", "assay_type": "in vivo, rat", "conditions": "adult male rats", "protocol": "The ability of an LHRH antagonist of the invention to suppress plasma testosterone levels was examined in adult male rats. In one experiment, a single injection of LHRH antagonist was administered subcutaneously at doses of 300 or 1000 μg/kg. […] Testosterone levels returned to normal by 24 hours after the 300 μg/kg dose, but not until 72 hours after the 1000 μg/kg dose."}, "plasma testosterone [5]": {"tested_on": "plasma testosterone", "test": "Suppression of plasma testosterone, continuous subcutaneous infusion via osmotic pump (FIG. 2, FIG. 3)", "assay_type": "in vivo, rat", "protocol": "FIG. 2 is a graph depicting plasma testosterone levels (in ng/ml) in adult male rats subcutaneously administered the LHRH antagonist #3827 via an osmotic pump. Doses were either 300 μg/kg/day for two weeks, followed by 15 μg/kg/day for an additional two weeks or 1000 μg/kg/day for two weeks, followed by 5, 15 or 50 μg/kg/day for an additional two weeks.\nFIG. 3 is a graph depicting the plasma testosterone levels (in ng/ml) in adult male rats subcutaneously administered the LHRH antagonist #3827 via an osmotic pump. Doses were either 30 μg/kg/day for two weeks, followed by 5 μg/kg/day for an additional two weeks, 100 μg/kg/day for two weeks, followed by 5 μg/kg/day for an additional two weeks. or 300 μg/kg/day for two weeks, followed by 0 or 5 μg/kg/day for an additional two weeks.\nIn another experiment, continuous subcutaneous infusion of the LHRH antagonist # 3827 was achieved through use of an osmotic pump. Doses of 300 or 1000 μg/kg/day (“High Dose”) were administered subcutaneously for two weeks via Alzet osmotic minipumps in each of five male Sprague-Dawley rats. The animals that received 1000 μg/kg/day were then maintained for an additional two weeks with 5, 15 or 50 μg/kg/day (“Low Dose”) before the pumps were removed completely. The results are shown graphically in FIG. 2."}, "[6]": {"conditions": "cited from earlier work"}, "[7]": {"conditions": "follow up study, FIG. 3, osmotic pump s.c."}}, "data": [{"molecule": "Ac-D-Nal^1, 4-Cl-D-Phe^2, D-Pal^3, 4-Cl-Phe^5, D-Pal(iPr)^6, Lys(iPr)^8, D-Ala^10-LHRH.2TFA [Compound 3851]", "values": [{"measurement": "AO activity (AOA): rats which ovulate / rats treated", "setting": "ovulation in female rats [1]; dose 1 μg per rat", "result": "0/8@1.0"}, {"measurement": "AO activity (AOA), in words", "setting": "ovulation in female rats [1]", "result": "unexpectedly active"}, {"measurement": "Histamine release ED50", "setting": "rat mast cells; footnote a: run with Nal arg reference 0.11", "result": 4.1, "unit": "µg/mL"}, {"measurement": "Histamine release ED50", "setting": "rat mast cells; footnote b: run with Nal arg reference 0.14", "result": 5.4, "unit": "µg/mL"}, {"measurement": "AO activity (AOA): rats which ovulate / rats treated", "setting": "ovulation in female rats [2]", "result": "6/8@0.5"}]}, {"molecule": "Ac-D-Nal^1, 4-Cl-D-Phe^2, D-Pal^3, N-Me-Tyr^5, D-Asn^6, Lys(iPr)^8, D-Ala^10-LHRH.TFA [Compound 3827]", "values": [{"measurement": "plasma testosterone", "setting": "plasma testosterone [3]; eight doses of 1 μg/kg, every three hours (8 μg/kg/day)", "result": "significant decrease"}, {"measurement": "plasma testosterone", "setting": "plasma testosterone [3]; eight doses of 10 μg/kg, every three hours (80 μg/kg/day)", "result": "Castrate levels"}, {"measurement": "time until testosterone levels returned to normal", "setting": "plasma testosterone [4]; single s.c. 300 μg/kg", "result": "≤ 24", "unit": "h"}, {"measurement": "time until testosterone levels returned to normal", "setting": "plasma testosterone [4]; single s.c. 1000 μg/kg", "result": 72, "unit": "h"}, {"measurement": "plasma testosterone", "setting": "plasma testosterone [4]; single s.c. injection 300 or 1000 μg/kg, by 6 hours post-administration", "result": "nearly undetectable levels"}, {"measurement": "AO activity (AOA): rats which ovulate / rats treated", "setting": "ovulation in female rats [1]; dose 1 μg per rat", "result": "4/8@1.0"}, {"measurement": "AO activity (AOA), in words", "setting": "ovulation in female rats [1]", "result": "moderate AO activity"}, {"measurement": "castration during Low Dose maintenance", "setting": "plasma testosterone [5]; after High Dose two weeks, Low Dose pumps 5, 15 or 50 μg/kg/day, as low as 5 μg/kg/day", "result": "remained fully castrated"}, {"measurement": "recovery in plasma testosterone following completion of treatment", "setting": "plasma testosterone [5]; by maintenance dose", "result": "dose dependent recovery"}, {"measurement": "dose achieving complete suppression of testosterone to castrate levels (as low as)", "setting": "plasma testosterone [5]; [7]", "result": "≤ 30", "unit": "µg/kg/day"}, {"measurement": "dose maintaining castrate levels (as low as)", "setting": "plasma testosterone [5]; [7]", "result": "≤ 5", "unit": "µg/kg/day"}, {"measurement": "time to castrate levels of testosterone", "setting": "plasma testosterone [5]; male Sprague-Dawley rats, osmotic pump s.c., initial dose 300 or 1000 μg/kg/day", "result": "≤ 7", "unit": "days"}, {"measurement": "castration response during chronic treatment", "setting": "plasma testosterone [5]; osmotic pump s.c.", "result": "no apparent “castration response”"}, {"measurement": "recovery of testosterone levels following pump removal", "setting": "plasma testosterone [5]; rat, in vivo", "result": "complete within two weeks"}]}, {"molecule": "Ac-D-Nal^1, 4-Cl-D-Phe^2, D-Pal^3, D-Met(S^+CH3)^6, D-Ala^10-LHRH.2TFA [Compound 3967]", "values": [{"measurement": "AO activity (AOA): rats which ovulate / rats treated", "setting": "ovulation in female rats [1]; dose 0.25 μg per rat", "result": "7/8@0.25"}, {"measurement": "Histamine release ED50", "setting": "rat mast cells; footnote e: run with Nal arg reference 0.1", "result": 0.38, "unit": "µg/mL"}, {"measurement": "Histamine release ED50", "setting": "rat mast cells; footnote f: run with Nal arg reference 0.02", "result": 0.15, "unit": "µg/mL"}, {"measurement": "AO activity (AOA): rats which ovulate / rats treated", "setting": "ovulation in female rats [2]", "result": "1/8@0.5"}]}, {"molecule": "Oc1ccc2ccccc2c1", "note": "[β-naphthol]", "values": [{"measurement": "measured log P (octanol/water)", "setting": "[6]", "result": 2.84}]}, {"molecule": "c1ccc2ccccc2c1", "note": "[naphthalene]", "values": [{"measurement": "measured log P (octanol/water)", "setting": "[6]", "result": 3.45}]}, {"molecule": "Ac-D-Nal^1, 4-Cl-D-Phe^2, D-Pal^3, D-Lys(Glc)^6-Lys(iPr)^8, D-Ala^10-LHRH.TFA [Compound 3423A]", "values": [{"measurement": "AO activity (AOA): rats which ovulate / rats treated", "setting": "ovulation in female rats [1]; dose 1 μg per rat", "result": "2/10@1 μg"}, {"measurement": "AO activity (AOA): rats which ovulate / rats treated", "setting": "ovulation in female rats [1]; dose 2 μg per rat", "result": "0/10@2 μg"}, {"measurement": "Histamine release ED50", "setting": "rat mast cells; rat mast cells, 15 minutes at 37° C.", "result": 52, "unit": "µg/mL"}, {"measurement": "AO activity (AOA): rats which ovulate / rats treated", "setting": "ovulation in female rats [2]", "result": "7/10@0.5 μg"}]}]}
